Among the data in patent US12473295B2, “Substituted straight chain spiro derivatives” (Janssen Pharmaceutica NV, priority 2019, dated 2025) are IC50 values, retold here.

Molecules are shown by their SMILES. Structures can show the parent of a compound that is named as a salt. Some results are limits rather than exact numbers.

Assay [1] has as its target menin/MLL (terbium chelate-labeled menin, FITC-MBM1 peptide) (Homo sapiens (Human), UniProt O00255). Description: Menin/MLL homogenous time-resolved fluorescence (HTRF) assay.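 Further: IC50 from percent inhibition of HTRF signal, normalized between wells without competitor and wells with a saturating competitor that displaces FITC-MBM1 from His-tagged menin.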 The class given is binding. As to conditions: HTRF-30 min incubation IC50, 30 min incubation.
For another assay, the system named is MEIS1 mRNA. The experiment in a line: MEIS1 mRNA expression assay (Quantigene Singleplex) in MOLM14 cells.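 Further: MEIS1 transcript levels read by probe hybridization and normalized to RPL28 mRNA, with IC50 fitted to fold changes across a rising compound concentration series.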 The class given is cell-based, human. As to conditions: Homo sapiens, MOLM-14, 48 h, 48 hours incubation.

Chain of menin/MLL (terbium chelate-labeled menin, FITC-MBM1 peptide) (O00255 other isoform, or with tags, fused parts or gaps): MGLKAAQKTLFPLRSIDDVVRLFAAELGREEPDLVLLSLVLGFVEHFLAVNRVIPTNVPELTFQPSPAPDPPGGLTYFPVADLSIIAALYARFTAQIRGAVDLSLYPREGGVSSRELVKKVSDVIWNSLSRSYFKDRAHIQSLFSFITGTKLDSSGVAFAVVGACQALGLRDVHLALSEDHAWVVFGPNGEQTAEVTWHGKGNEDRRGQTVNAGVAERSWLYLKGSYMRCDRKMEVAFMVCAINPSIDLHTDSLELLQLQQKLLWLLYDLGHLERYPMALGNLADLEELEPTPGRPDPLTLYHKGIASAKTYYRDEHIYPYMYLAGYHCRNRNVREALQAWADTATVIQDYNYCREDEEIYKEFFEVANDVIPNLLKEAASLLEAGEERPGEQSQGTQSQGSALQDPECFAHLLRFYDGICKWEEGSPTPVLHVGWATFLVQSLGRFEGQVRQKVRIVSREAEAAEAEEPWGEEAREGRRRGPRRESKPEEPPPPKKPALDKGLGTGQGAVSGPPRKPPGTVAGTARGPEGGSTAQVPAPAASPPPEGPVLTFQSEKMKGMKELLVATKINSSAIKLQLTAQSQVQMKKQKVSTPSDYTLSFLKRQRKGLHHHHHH

Turning to `CCN(C(=O)c1cc(F)ccc1Oc1nncnc1N1CCC2(C1)CN([C@@H](C[C@@H](CN(C)C)OC)C(C)C)C2)C(C)C` (single isomer, unassigned) [Compound 377, 2-((5-(2-((3*S,5*R)-6-(dimethylamino)-5-methoxy-2-methylhexan-3-yl)-2,6-diazaspiro[3.4]octan-6-yl)-1,2,4-triazin-6-yl)oxy)-N-ethyl-5-fluoro-N-isopropylbenzamide fumarate], inhibition in assay [1] was half-maximal at 15.4 nM (IC50). For `CCN(C(=O)c1cc(F)ccc1Oc1nnc(OC)nc1N1CCC2(C1)CN([C@H](CCCN)C(C)C)C2)C(C)C` [Compound 407, (R)-2-((5-(2-(6-amino-2-methylhexan-3-yl)-2,6-diazaspiro[3.4]octan-6-yl)-3-methoxy-1,2,4-triazin-6-yl)oxy)-N-ethyl-5-fluoro-N-isopropylbenzamide formate], the IC50 in the assay with MEIS1 mRNA came out at 380 nM; in assay [1], 0.086 nM. For the compound `CCN(C(=O)c1cc(F)ccc1Oc1nncnc1N1CCC2(C1)CN([C@@H](C[C@H](O)CN(C)C(C)C)C(C)C)C2)C(C)C` (single isomer, unassigned) [Compound 324, N-ethyl-5-fluoro-2-((5-(2-((3*S,5*S)-5-hydroxy-6-(isopropyl(methyl)amino)-2-methylhexan-3-yl)-2,6-diazaspiro[3.4]octan-6-yl)-1,2,4-triazin-6-yl)oxy)-N-isopropylbenzamide fumarate], half-maximal inhibition in assay [1] (IC50) was put at 18.4 nM. The same measure, in the same setting: the value for `CCN(C(=O)c1cc(F)ccc1Oc1nncnc1N1CCC2(C1)CN([C@@H](C[C@@H](O)CN(C)C(C)C)C(C)C)C2)C(C)C` (single isomer, unassigned) [Compound 326, N-ethyl-5-fluoro-2-((5-(2-((3*S,5*R)-5-hydroxy-6-(isopropyl(methyl)amino)-2-methylhexan-3-yl)-2,6-diazaspiro[3.4]octan-6-yl)-1,2,4-triazin-6-yl)oxy)-N-isopropylbenzamide fumarate] was 18.5 nM; that for `CCCN(C)C[C@@H](O)C[C@@H](C(C)C)N1CC2(CCN(c3ncnnc3Oc3ccc(F)cc3C(=O)N(CC)C(C)C)C2)C1` (single isomer, unassigned) [Compound 387, N-ethyl-5-fluoro-2-((5-(2-((3*S,5*S)-5-hydroxy-2-methyl-6-(methyl(propyl)amino)hexan-3-yl)-2,6-diazaspiro[3.4]octan-6-yl)-1,2,4-triazin-6-yl)oxy)-N-isopropylbenzamide fumarate] was 9.52 nM. Same read-out and setting: the value for `CCN(C)C[C@@H](O)C[C@@H](C(C)C)N1CC2(CCN(c3ncnnc3Oc3ccc(F)cc3C(=O)N(C(C)C)C(C)C)C2)C1` (single isomer, unassigned) [Compound 392, 2-((5-(2-((3*S,5*S)-6-(ethyl(methyl)amino)-5-hydroxy-2-methylhexan-3-yl)-2,6-diazaspiro[3.4]octan-6-yl)-1,2,4-triazin-6-yl)oxy)-5-fluoro-N,N-diisopropylbenzamide fumarate] was 10.3 nM; that for `CCN(CC)C[C@@H](O)C[C@@H](C(C)C)N1CC2(CCN(c3ncnnc3Oc3ccc(F)cc3C(=O)N(CC)C(C)C)C2)C1` (single isomer, unassigned) [Compound 335, 2-((5-(2-((3*S,5*S)-6-diethylamino)-5-hydroxy-2-methylhexan-3-yl)-2,6-diazaspiro[3.4]octan-6-yl)-1,2,4-triazin-6-yl)oxy)-N-ethyl-5-fluoro-N-isopropylbenzamide fumarate] was 5.49 nM. Consider `CCN(C(=O)c1cc(F)ccc1Oc1nnc(OC)nc1N1CCC2(C1)CN([C@H](CCCN(C)CCOC)C(C)C)C2)C(C)C` [Compound 416, (R)-N-ethyl-5-fluoro-N-isopropyl-2-((3-methoxy-5-(2-(6-((2-methoxyethyl)(methyl)amino)-2-methylhexan-3-yl)-2,6-diazaspiro[3.4]octan-6-yl)-1,2,4-triazin-6-yl)oxy)benzamide formate], for which the values for the IC50 (with MEIS1 mRNA; in assay [1]) were 49 nM and about 0.035 nM, respectively. In turn, `CCN(C(=O)c1cc(F)ccc1Oc1nncnc1N1CCC2(C1)CN([C@@H](C[C@H](CN(C)C)OC)C(C)C)C2)C(C)C` (single isomer, unassigned) [Compound 378, 2-((5-(2-((3*S,5*R)-6-(dimethylamino)-5-methoxy-2-methylhexan-3-yl)-2,6-diazaspiro[3.4]octan-6-yl)-1,2,4-triazin-6-yl)oxy)-N-ethyl-5-fluoro-N-isopropylbenzamide fumarate] showed an IC50 in assay [1] of 27.3 nM. For `CCN(CC)C[C@@H](O)C[C@H](C(C)C)N1CC2(CCN(c3ncnnc3Oc3ccc(F)cc3C(=O)N(CC)C(C)C)C2)C1` (single isomer, unassigned) [Compound 337, 2-(5-(2-((3*R,5*S)-6-(diethylamino)-5-hydroxy-2-methylhexan-3-yl)-2,6-diazaspiro[3.4]octan-6-yl)-1,2,4-triazin-6-yl)oxy)-N-ethyl-5-fluoro-N-isopropylbenzamide fumarate], the IC50 in the assay on MEIS1 mRNA was over 1000 nM; in assay [1], 4.57 nM. `CCN(C(=O)c1cc(F)ccc1Oc1nncnc1N1CCC2(C1)CN([C@@H](C[C@H](O)CN(C)CCOC)C(C)C)C2)C(C)C` (single isomer, unassigned) [Compound 353, N-ethyl-5-fluoro-2-((5-(2-((3*S,5S)-5-hydroxy-6-((2-methoxyethyl)(methyl)amino)-2-methylhexan-3-yl)-2,6-diazaspiro[3.4]octan-6-yl)-1,2,4-triazin-6-yl)oxy)-N-isopropylbenzamide fumarate]: half-maximal inhibition in assay [1] (IC50) was put at 4.19 nM. The same measure, in the same setting: the value for `CC(C)[C@H](C[C@@H](O)CN(C)C)N1CC2(CCN(c3ncnnc3Oc3ccc(F)cc3C(=O)N(C(C)C)C(C)C)C2)C1` (single isomer, unassigned) [Compound 370, 2-((5-(2-((3*S,5*R)-6-(dimethylamino)-5-hydroxy-2-methylhexan-3-yl)-2,6-diazaspiro[3.4]octan-6-yl)-1,2,4-triazin-6-yl)oxy)-5-fluoro-N,N-diisopropylbenzamide fumarate] was 5.42 nM; that for `COCCNCCC[C@@H](C(C)C)N1CC2(CCN(c3ncnnc3Oc3ccc(F)cc3C(=O)N(C(C)C)C(C)C)C2)C1` (single isomer, unassigned) [Compound 100, (*S)-5-fluoro-N,N-isopropyl-2-((5-(2-(6-((2-methoxyethyl)amino)-2-methylhexan-3-yl)-2,6-diazaspiro[3.4]octan-6-yl)-1,2,4-triazin-6-yl)oxy)benzamide oxalate] was 2.05 nM; that for `CCN(C)C[C@@H](C[C@@H](C(C)C)N1CC2(CCN(c3ncnnc3Oc3ccc(F)cc3C(=O)N(CC)C(C)C)C2)C1)OC` (single isomer, unassigned) [Compound 380, N-ethyl-2-((5-(2-((3*S,5*R)-6-(ethyl(methyl)amino)-5-methoxy-2-methylhexan-3-yl)-2,6-diazaspiro[3.4]octan-6-yl)-1,2,4-triazin-6-yl)oxy)-5-fluoro-N-isopropylbenzamide] was 40.5 nM. Still for that read-out and setting: the value for `COCCN(C)CCC[C@H](C(C)C)N1CC2(CCN(c3ncnnc3Oc3ccc(F)cc3C(=O)N(C)C(C)C)C2)C1` [Compound 415, (R)-5-fluoro-N-isopropyl-2-((5-(2-(6-((2-methoxyethyl)(methyl)amino)-2-methylhexan-3-yl)-2,6-diazaspiro[3.4]octan-6-yl)-1,2,4-triazin-6-yl)oxy)-N-methylbenzamide] was 0.084 nM; that for `CCN(C(=O)c1cc(F)ccc1Oc1nncnc1N1CCC2(C1)CN([C@@H](CCCCN(C)C)C(C)C)C2)C(C)C` (single isomer, unassigned) [Compound 212] was 9.45 nM; that for `CCN(C(=O)c1cc(F)ccc1Oc1nncnc1N1CCC2(C1)CN([C@@H](C[C@H](C)CN(C)CCOC)C(C)C)C2)C(C)C` (single isomer, unassigned) [Compound 243, N-ethyl-5-fluoro-N-isopropyl-2-((5-(2-((3*S,5*S)-6-((2-methoxyethyl)(methyl)amino)-2,5-dimethylhexan-3-yl)-2,6-diazaspiro[3.4]octan-6-yl)-1,2,4-triazin-6-yl)oxy)benzamide fumarate] was 7.39 nM. The same measure, in the same setting: with `CCN(C(=O)c1cc(F)ccc1Oc1nncnc1N1CCC2(C1)CN([C@H](C[C@@H](C)CN(C)CCOC)C(C)C)C2)C(C)C` (single isomer, unassigned) [Compound 240, N-ethyl-5-fluoro-N-isopropyl-2-((5-(2-((3*R,5*R)-6-((2-methoxyethyl)(methyl)amino)-2,5-dimethylhexan-3-yl)-2,6-diazaspiro[3.4]octan-6-yl)-1,2,4-triazin-6-yl)oxy)benzamide fumarate] the figure was 12.3 nM; with `CCN(C)C[C@H](C[C@@H](C(C)C)N1CC2(CCN(c3ncnnc3Oc3ccc(F)cc3C(=O)N(CC)C(C)C)C2)C1)OC` (single isomer, unassigned) [Compound 379, N-ethyl-2-((5-(2-((3*S,5*S)-6-(ethyl(methyl)amino)-5-methoxy-2-methylhexan-3-yl)-2,6-diazaspiro[3.4]octan-6-yl)-1,2,4-triazin-6-yl)oxy)-5-fluoro-N-isopropylbenzamide], 14.2 nM. Compound `COCCN(C)CCC[C@@H](C(C)C)N1CC2(CCN(c3ccnnc3Oc3ccc(F)cc3C(=O)N(C(C)C)C(C)C)C2)C1` (single isomer, unassigned) [Compound 89, (*S)-5-fluoro-N,N-isopropyl-2-((4-(2-(6-((2-methoxyethyl)(methyl)amino)-methylhexan-3-yl)-2,6-diazaspiro[3.4]octan-6-yl)pyridazin-3-yl)oxy)benzamide oxalate] yielded an IC50 in assay [1] of 3.79 nM.

`CCN(C(=O)c1cc(F)ccc1Oc1nncnc1N1CCC2(C1)CN([C@@H](C[C@@H](O)CN(C)CCOC)C(C)C)C2)C(C)C` (single isomer, unassigned) [Compound 357, N-ethyl-5-fluoro-2-((5-(2-((3*S,5R)-5-hydroxy-6-((2-methoxyethyl)(methyl)amino)-2-methylhexan-3-yl)-2,6-diazaspiro[3.4]octan-6-yl)-1,2,4-triazin-6-yl)oxy)-N-isopropylbenzamide fumarate]: 7.77 nM corresponded to half-maximal inhibition in assay [1] (IC50).
